Data: publication PMC3914206

Legend:
Assay type in all cases: binding
[1] = target: T1, panel of 442 kinases (Homo sapiens, UniProt O14757); details: Compound Concentration 10 µM
T1 construct: purchased KINOMEscan
T1 sequence (O14757 1-476): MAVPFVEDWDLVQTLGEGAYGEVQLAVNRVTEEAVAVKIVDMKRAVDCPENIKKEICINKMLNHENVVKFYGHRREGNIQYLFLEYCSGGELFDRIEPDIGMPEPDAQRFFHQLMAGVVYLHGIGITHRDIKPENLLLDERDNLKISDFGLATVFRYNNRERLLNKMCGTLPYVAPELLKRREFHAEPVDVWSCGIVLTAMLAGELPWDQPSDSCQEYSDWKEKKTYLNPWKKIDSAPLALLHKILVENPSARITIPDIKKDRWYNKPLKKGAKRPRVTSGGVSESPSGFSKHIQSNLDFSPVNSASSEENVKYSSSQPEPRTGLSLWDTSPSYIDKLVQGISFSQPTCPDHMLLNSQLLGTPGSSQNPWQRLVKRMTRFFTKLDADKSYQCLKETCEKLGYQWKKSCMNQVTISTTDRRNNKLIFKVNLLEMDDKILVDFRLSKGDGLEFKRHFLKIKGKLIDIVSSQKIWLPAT
Text: (§1) We assessed the selectivity of members of this scaffold using the KINOMEscan methodology across a near comprehensive panel of 442 kinases [[18,27]].

[2] = target: T2, panel of 442 kinases (Homo sapiens, UniProt Q52WX2); details: kinase SBK1; compound concentration 10 µM
T2 construct: purchased KINOMEscan
T2 sequence (Q52WX2 whole entry): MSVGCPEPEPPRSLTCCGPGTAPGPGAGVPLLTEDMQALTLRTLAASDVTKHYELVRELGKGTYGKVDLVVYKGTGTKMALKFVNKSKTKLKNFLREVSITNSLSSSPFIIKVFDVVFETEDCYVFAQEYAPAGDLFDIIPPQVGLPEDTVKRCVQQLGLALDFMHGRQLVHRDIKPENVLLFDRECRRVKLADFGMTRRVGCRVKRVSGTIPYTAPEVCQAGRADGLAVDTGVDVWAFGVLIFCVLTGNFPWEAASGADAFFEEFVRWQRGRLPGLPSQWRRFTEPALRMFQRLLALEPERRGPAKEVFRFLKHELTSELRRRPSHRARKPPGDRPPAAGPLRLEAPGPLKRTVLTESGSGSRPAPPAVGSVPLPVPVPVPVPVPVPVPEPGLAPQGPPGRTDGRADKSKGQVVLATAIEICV
Text: as §1

[3] = target: T3, panel of 442 kinases (Homo sapiens, UniProt P22694); details: Compound Concentration 10 µM
T3 construct: purchased KINOMEscan
Text: as §1

COc1cc(C(=O)N2CCC(N3CCN(C)CC3)CC2)ccc1Nc1ncc2c(n1)N(C1CCCC1)c1ccccc1C(=O)N2C [Compound 25, 11-cyclopentyl-2-((2-methoxy-4-(4-(4-methylpiperazin-1-yl)piperidine-1-carbonyl)phenyl)amino)-5-methyl-5H-benzo[e]pyrimido[5,4-b][1,4]diazepin-6(11H)-one]
KINOMEscan: CHEK1 [1]: 100 | % Ctrl, SBK1 [2]: 72 % Ctrl | KINOMEscan: PKAC-beta [3]: 100

CCOc1cc(C(=O)N2CCC(N3CCN(C)CC3)CC2)ccc1Nc1ncc2c(n1)N(C1CCCC1)c1ccccc1C(=O)N2C [Compound 26]
KINOMEscan: CHEK1 [1]: 100 | % Ctrl, SBK1 [2]: 99 % Ctrl | KINOMEscan: PKAC-beta [3]: 100

COc1cc(C(=O)N2CCC(N3CCN(C)CC3)CC2)ccc1Nc1ncc2c(n1)N1CCc3cccc(c31)C(=O)N2C [Compound 24]
KINOMEscan: CHEK1 [1]: 85 | % Ctrl, SBK1 [2]: 80 % Ctrl

COc1cc(C(=O)N2CCC(N3CCN(C)CC3)CC2)ccc1Nc1ncc2c(n1)N(C)c1ccccc1C(=O)N2C [15 (LRRK2-IN-1)]
KINOMEscan: CHEK1 [1]: 100 | % Ctrl, SBK1 [2]: 100 % Ctrl | KINOMEscan: PKAC-beta [3]: 100
